Source: publication PMC6746701, “A phyB-PIF1-SPA1 kinase regulatory complex promotes photomorphogenesis in Arabidopsis” (Nature Communications, 2019)

Experiments:
Format in all cases: biochemical
[1] = molecular target: T1, SPA1-Kin (Arabidopsis thaliana, UniProt Q9SYX2); assay: in vitro autophosphorylation assay, autoradiogram; conditions: 10 mM MgCl2, pH 7.5, 28 °C; labelled compound (gamma-32P)
T1 sequence (Q9SYX2 1-545 limits assumed): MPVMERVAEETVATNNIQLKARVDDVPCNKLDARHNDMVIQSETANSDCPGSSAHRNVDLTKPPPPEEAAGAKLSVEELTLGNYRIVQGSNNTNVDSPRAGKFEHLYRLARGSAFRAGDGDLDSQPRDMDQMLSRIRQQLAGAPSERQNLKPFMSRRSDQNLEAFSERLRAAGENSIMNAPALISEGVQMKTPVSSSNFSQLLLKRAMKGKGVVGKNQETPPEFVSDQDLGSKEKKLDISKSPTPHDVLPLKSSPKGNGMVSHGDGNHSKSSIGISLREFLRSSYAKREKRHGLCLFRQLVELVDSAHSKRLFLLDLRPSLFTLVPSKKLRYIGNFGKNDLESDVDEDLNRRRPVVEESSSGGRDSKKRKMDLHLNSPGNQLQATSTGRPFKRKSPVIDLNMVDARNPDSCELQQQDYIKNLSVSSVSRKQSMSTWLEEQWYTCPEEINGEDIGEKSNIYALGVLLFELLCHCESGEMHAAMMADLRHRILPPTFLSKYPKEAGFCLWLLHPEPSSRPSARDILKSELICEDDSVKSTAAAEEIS

[2] = molecular target: T2, phyA (Arabidopsis thaliana, UniProt P14712); assay: in vitro kinase assay, autoradiogram; conditions: PIF1 as co-substrate, 10 mM MgCl2, pH 7.5, 28 °C; labelled compound (gamma-32P)
T2 construct: holoprotein purified from Saccharomyces cerevisiae
T2 sequence (P14712 1-1122): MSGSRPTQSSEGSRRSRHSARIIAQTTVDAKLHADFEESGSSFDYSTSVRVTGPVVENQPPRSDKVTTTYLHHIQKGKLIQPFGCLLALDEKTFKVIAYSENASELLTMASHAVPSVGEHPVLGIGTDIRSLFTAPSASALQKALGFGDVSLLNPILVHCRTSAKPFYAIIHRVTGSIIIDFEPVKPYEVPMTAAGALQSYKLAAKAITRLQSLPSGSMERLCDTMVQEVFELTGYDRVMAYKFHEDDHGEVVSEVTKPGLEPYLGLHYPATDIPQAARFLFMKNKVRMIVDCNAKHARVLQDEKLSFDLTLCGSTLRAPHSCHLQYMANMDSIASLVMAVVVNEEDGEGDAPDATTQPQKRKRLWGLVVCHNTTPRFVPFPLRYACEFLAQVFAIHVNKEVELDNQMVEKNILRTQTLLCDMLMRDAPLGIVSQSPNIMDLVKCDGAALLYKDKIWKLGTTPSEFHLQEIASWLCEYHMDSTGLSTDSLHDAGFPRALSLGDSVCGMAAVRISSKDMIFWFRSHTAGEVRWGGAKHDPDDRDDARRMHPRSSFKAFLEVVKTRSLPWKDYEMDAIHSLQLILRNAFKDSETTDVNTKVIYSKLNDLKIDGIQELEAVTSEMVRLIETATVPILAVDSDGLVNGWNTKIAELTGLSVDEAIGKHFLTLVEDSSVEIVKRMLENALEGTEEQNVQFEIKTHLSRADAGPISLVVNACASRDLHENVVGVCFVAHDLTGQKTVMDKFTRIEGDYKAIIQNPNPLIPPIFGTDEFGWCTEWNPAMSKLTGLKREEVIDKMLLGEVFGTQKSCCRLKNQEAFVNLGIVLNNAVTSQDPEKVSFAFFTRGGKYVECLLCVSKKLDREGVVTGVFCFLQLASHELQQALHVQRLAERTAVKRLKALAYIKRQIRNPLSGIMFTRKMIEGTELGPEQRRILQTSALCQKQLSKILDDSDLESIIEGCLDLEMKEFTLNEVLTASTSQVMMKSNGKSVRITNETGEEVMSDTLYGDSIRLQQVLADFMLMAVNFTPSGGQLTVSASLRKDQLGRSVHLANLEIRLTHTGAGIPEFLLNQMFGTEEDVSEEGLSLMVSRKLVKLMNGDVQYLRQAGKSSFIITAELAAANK

[3] = molecular target: T3, full-length SPA1 (Arabidopsis thaliana, UniProt Q9SYX2, R517E); assay: in vitro kinase assay, autoradiogram; conditions: GST-PIF1 as co-substrate, 10 mM MgCl2, pH 7.5, 28 °C; labelled compound (gamma-32P)
T3 construct: full length, strep-tagged (3x Flag also cloned), Pichia pastoris GS115, tags kept
T3 sequence (Q9SYX2 1-1029 R517E): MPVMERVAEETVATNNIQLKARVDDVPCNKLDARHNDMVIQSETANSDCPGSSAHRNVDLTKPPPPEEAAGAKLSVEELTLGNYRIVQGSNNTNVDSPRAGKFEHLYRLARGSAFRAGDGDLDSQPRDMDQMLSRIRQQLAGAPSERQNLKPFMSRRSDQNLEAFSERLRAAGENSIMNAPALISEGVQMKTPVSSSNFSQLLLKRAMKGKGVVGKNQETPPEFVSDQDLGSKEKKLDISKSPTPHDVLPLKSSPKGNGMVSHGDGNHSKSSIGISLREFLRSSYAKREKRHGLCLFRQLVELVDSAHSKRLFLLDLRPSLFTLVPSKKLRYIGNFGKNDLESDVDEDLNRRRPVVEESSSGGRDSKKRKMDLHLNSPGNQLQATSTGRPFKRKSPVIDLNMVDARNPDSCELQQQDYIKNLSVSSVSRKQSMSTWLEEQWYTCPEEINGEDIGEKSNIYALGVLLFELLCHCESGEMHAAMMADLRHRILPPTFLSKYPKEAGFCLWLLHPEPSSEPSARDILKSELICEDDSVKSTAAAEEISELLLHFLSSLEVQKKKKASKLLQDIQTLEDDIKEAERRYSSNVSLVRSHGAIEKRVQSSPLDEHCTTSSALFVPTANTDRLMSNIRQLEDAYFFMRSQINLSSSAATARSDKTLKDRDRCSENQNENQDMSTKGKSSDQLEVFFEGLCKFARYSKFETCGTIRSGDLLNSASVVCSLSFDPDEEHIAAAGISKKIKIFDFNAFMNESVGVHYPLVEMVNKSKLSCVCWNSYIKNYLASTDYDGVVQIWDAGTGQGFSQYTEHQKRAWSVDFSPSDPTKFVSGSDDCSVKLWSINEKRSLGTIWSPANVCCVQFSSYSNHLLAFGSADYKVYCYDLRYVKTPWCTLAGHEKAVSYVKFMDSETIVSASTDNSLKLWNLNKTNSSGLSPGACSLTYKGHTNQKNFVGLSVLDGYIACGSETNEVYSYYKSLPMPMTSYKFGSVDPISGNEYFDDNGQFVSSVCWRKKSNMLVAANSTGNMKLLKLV

With Nc1ncnc2c1ncn2[C@@H]1O[C@H](COP(=O)(O)OP(=O)(O)OP(=O)(O)O)[C@@H](O)[C@H]1O [ATP] the “in vitro autophosphorylation assay, autoradiogram” value [1] was “The purified SPA1-Kin domain displayed autophosphorylation activity in a protein concentration-dependent manner”, the “in vitro kinase assay, autoradiogram” value [2] was “In this assay, both phyA and phyB phosphorylated PIF1 in vitro” and the “in vitro kinase assay, autoradiogram” value [3] was “mSPA1 showed significantly reduced PIF1 phosphorylation compared to the wild type SPA1”.
